Measured values taken from patent US7732468B2, “3-aryl-6-aryl-[ 1,2,4]triazolo[3,4-b][1,3,4]thiadiazoles and related compounds as activators of caspases and inducers of apoptosis and the use thereof” (Cytovia, Inc., priority 2006, dated 2010).

Legend:
Assay type in all cases: cell-based
[1] = tested on: Human breast cancer cell lines MX1; experiment: Inhibition of cell proliferation (GI50) in MX1 cells; conditions: 48 h incubation
Procedure: (§1) Human breast cancer cell lines T-47D, MX1 and MDAMB435, human colon carcinoma cell line HCT116, human leukemia cell line K562, human lymphoma cell line Raji, human B cell lymphoblastoid cell line Ramos, and human Burkitt's lymphoma cell line Namalwa were grown and harvested as in Example 14. An aliquot of […] of cells (4.4×10^4 cells/mL) was added to a well of a 96-well microtiter plate containing 5 μL of a 10% DMSO in RPMI-1640 media solution containing 10 nM to 100 μM of 6-(3,4-dimethoxyphenyl)-3-(2-methoxyphenyl)-[1,2,4]triazolo[3,4-b][1,3,4]thiadiazole (1 nM to 10 μM final). An aliquot of 45 μL of cells was added to a well of a 96-well microtiter plate containing 5 μL of a 10% DMSO in RPMI-1640 media solution without compound as the control sample for maximal cell proliferation (LMax). The samples were mixed by agitation and then incubated at 37° C. for 48 h in a 5% CO2-95% humidity incubator. After incubation, the samples were removed from the incubator and 25 μL of CellTiter-Glo™ reagent (Promega) was added. The samples were mixed by agitation and incubated at room temperature for 10-15 min. Plates were then read using a luminescent plate reader (Model SPECTRAfluor Plus, Tecan) to give Ltest values.
(§2) The samples were mixed by agitation and then incubated at 37° C. for 0.5 h in a 5% CO2-95% humidity incubator. After incubation, the samples were removed from the incubator and 25 μL of CellTiter-Glo™ reagent (Promega) was added. The samples were mixed by agitation and incubated at […] 10-15 min at room temperature in a 5% CO2-95% humidity incubator. Fluorescence was read as above, (LStart) defining luminescence for initial cell number used as baseline in GI50 determinations.
(§3) GI50 (dose for 50% inhibition of cell proliferation) is the concentration where [(LTest−LStart)/(LMax−LStart)]=0.5.

[2] = tested on: human B cell lymphoblastoid cell line Ramos; experiment: Caspase cascade activation in Ramos cells; conditions: 48 h incubation, read-out: caspase potency EC50 RAMOS
In short: (§4)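 EC50 reflects the ratio of net RFU in compound-treated wells to untreated control, where net RFU is the 3 h reading minus the T=0 control background. Cells were incubated 48 h with 0.016–10 μM compound before Ac-DEVD-R110 addition.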

[3] = tested on: human cancer cell line H1299; experiment: Caspase cascade activation in H1299 cells; conditions: NCI-H1299, 48 h incubation, read-out: caspase potency EC50 H1299
Procedure: Human breast cancer cell lines T-47D, human hepatocellular carcinoma cell line SNU398, human colon carcinoma cell line HCT116, human cancer cell line H11299, human Burkitt's lymphoma cell line Namalwa, human lymphoma cell line Raji, and human B cell lymphoblastoid cell line Ramos were grown according to media component mixtures designated by American Type Culture Collection+10% FCS (Invitrogen Corporation), in a 5% CO2-95% humidity incubator at 37° C. T-47D and H1299 cells were maintained at a cell density between 50 and 80% confluency at a cell density of 0.1 to 0.6×10^6 cells/mL. Cells were harvested at 600×g and resuspended at 0.65×10^6 cells/mL into appropriate media+10% FCS. An aliquot of 22.5 μL of cells was added to a well of a 384-well microtiter plate containing 2.5 μL of a 10% DMSO in RPMI-1640 media solution containing 0.16 to 100 μM of 6-(3,4-dimethoxyphenyl)-3-(2-methoxyphenyl)-[1,2,4]triazolo[3,4-b][1,3,4]thiadiazole or other test compound (0.016 to 10 μM final). An aliquot of 22.5 μL of cells was added to a well of a 384-well microtiter plate containing 2.5 μL of a 10% DMSO in RPMI-1640 media solution without test compound as the control sample. The samples were mixed by agitation and then incubated at 37° C. for 48 h in a 5% CO2-95% humidity incubator. After incubation, the samples were removed from the incubator and 25 μL of a solution containing 14 μM of N-(Ac-DEVD)-N′-ethoxycarbonyl-R110 (SEQ ID No.:1) fluorogenic substrate (Cytovia, Inc.; WO99/18856), 20% sucrose (Sigma), 20 mM DTT (Sigma), 200 mM NaCl (Sigma), 40 mM Na PIPES buffer pH 7.2 (Sigma), and 500 μg/mL lysolecithin (Calbiochem) was added. The samples were mixed by agitation and incubated at room temperature. Using a fluorescent plate reader (Model SPECTRAfluor Plus, Tecan), an initial reading (T=0) was made approximately 1-2 min after addition of the substrate solution, employing excitation at 485 nm and emission at 530 nm, to determine the background fluorescence of the control sample. After the 3 h incubation, the samples were read for fluorescence as above (T=3 h).
The Relative Fluorescence Unit values (RFU) were used to calculate the sample readings as follows: RFU(T=3h)−Control RFU(T=0)=Net RFU(T=3h)
The activity of caspase cascade activation was determined by the ratio of the net RFU value for 6-(3,4-dimethoxyphenyl)-3-(2-methoxyphenyl)-[1,2,4]triazolo[3,4-b][1,3,4]thiadiazole (Example I) or other test compound to that of control samples. The EC50 (nM) was determined by a sigmoidal dose-response calculation (Prism 3.0, GraphPad Software Inc.).

[4] = tested on: human lymphoma cell line Raji; experiment: Caspase cascade activation in Raji cells; conditions: RAJ1 cells, 48 h incubation, read-out: caspase potency EC50 RAJ1
In short: as §4

[5] = tested on: human colon carcinoma cell line HCT116; experiment: Inhibition of cell proliferation (GI50) in HCT116 cells; conditions: HCT 116 cells, 48 h incubation
Procedure: as §1, §2, §3

[6] = tested on: human hepatocellular carcinoma cell line SNU398; experiment: Caspase cascade activation in SNU398 cells; conditions: SNU-398, 48 h incubation, read-out: caspase potency EC50 SNU398
In short: as §4

[7] = tested on: human lymphoma cell line Raji; experiment: Inhibition of cell proliferation (GI50) in Raji cells; conditions: 48 h incubation
Procedure: as §1, §2, §3

[8] = tested on: human Burkitt's lymphoma cell line Namalwa; experiment: Caspase cascade activation in Namalwa cells; conditions: Burkitts lymphoma cell, 48 h incubation, read-out: caspase potency EC50 Namalwa
In short: as §4

[9] = tested on: human colon carcinoma cell line HCT116; experiment: Caspase cascade activation in HCT116 cells; conditions: HCT-116, 48 h incubation, read-out: caspase potency EC50 HCT116
In short: as §4

[10] = tested on: human leukemia cell line K562; experiment: Inhibition of cell proliferation (GI50) in K562 cells; conditions: 48 h incubation
Procedure: as §1, §2, §3

[11] = tested on: Human breast cancer cell lines T-47D; experiment: Inhibition of cell proliferation (GI50, CellTiter-Glo) in T-47D cells; conditions: T47D cells, 48 h incubation
Procedure: as §1, §2, §3

[12] = tested on: human B cell lymphoblastoid cell line Ramos; experiment: Inhibition of cell proliferation (GI50) in Ramos cells; conditions: 48 h incubation
Procedure: as §1, §2, §3

[13] = tested on: Human breast cancer cell lines T-47D; experiment: Caspase cascade activation (Ac-DEVD-R110 fluorogenic substrate) in T-47D cells; conditions: T47D cells, 48 h incubation, read-out: caspase potency EC50 T47D
In short: as §4

[14] = tested on: human Burkitt's lymphoma cell line Namalwa; experiment: Inhibition of cell proliferation (GI50) in Namalwa cells; conditions: Burkitts lymphoma cell, 48 h incubation
Procedure: as §1, §2, §3

[15] = tested on: Human breast cancer cell lines MDAMB435; experiment: Inhibition of cell proliferation (GI50) in MDAMB435 cells; conditions: MDA MB 435 cells, 48 h incubation
Procedure: as §1, §2, §3

## COc1ccc(-c2nn3c(-c4ccccc4OC)nnc3s2)cc1OC [I, 6-(3,4-dimethoxyphenyl)-3-(2-methoxyphenyl)-[1,2,4]triazolo[3,4-b][1,3,4]thiadiazole]
[1]
  GI50: 1030 nM
[2]
  EC50: 349 nM
[3]
  EC50: 808 nM
[4]
  EC50: 521 nM
[5]
  GI50: 2000 nM
[6]
  EC50: 300 nM
[7]
  GI50: 2000 nM
[8]
  EC50: 412 nM
[9]
  EC50: 523 nM
[10]
  GI50: 2080 nM
[11]
  GI50: 261 nM
[12]
  GI50: 2000 nM
[13]
  EC50: 563 nM
[14]
  GI50: 2000 nM
[15]
  GI50: 136 nM

## COc1ccccc1-c1nnc2sc(-c3ccc(Br)cc3)nn12 [H, 6-(4-Bromophenyl)-3-(2-methoxyphenyl)-[1,2,4]triazolo[3,4-b][1,3,4]thiadiazole]
[1]
  GI50: 400 nM
[2]
  EC50: 253 nM
[3]
  EC50: 733 nM
[4]
  EC50: 501 nM
[5]
  GI50: 844 nM
[6]
  EC50: 261 nM
[7]
  GI50: 700 nM
[8]
  EC50: 344 nM
[9]
  EC50: 537 nM
[10]
  GI50: 626 nM
[11]
  GI50: 217 nM
[12]
  GI50: 120 nM
[13]
  EC50: 563 nM
[14]
  GI50: 520 nM
[15]
  GI50: 48 nM

## COc1ccc(-c2nn3c(-c4ccccc4C)nnc3s2)cc1OC [E, 6-(3,4-Dimethoxyphenyl)-3-o-tolyl-[1,2,4]triazolo[3,4-b][1,3,4]thiadiazole]
[1]
  GI50: 4000 nM
[2]
  EC50: 235 nM
[3]
  EC50: 3000 nM
[4]
  EC50: 274 nM
[5]
  GI50: 6220 nM
[6]
  EC50: 507 nM
[7]
  GI50: 9400 nM
[8]
  EC50: 253 nM
[9]
  EC50: 5020 nM
[10]
  GI50: 2490 nM
[11]
  GI50: 3850 nM
[12]
  GI50: 3000 nM
[13]
  EC50: 561 nM
[14]
  GI50: 7870 nM
[15]
  GI50: 894 nM

## COc1ccc(-c2nn3c(-c4ccccc4Cl)nnc3s2)cc1OC [F, 3-(2-Chlorophenyl)-6-(3,4-dimethoxyphenyl)-[1,2,4]triazolo[3,4-b][1,3,4]thiadiazole]
[1]
  GI50: 4000 nM
[2]
  EC50: 5300 nM
[3]
  EC50: 5310 nM
[4]
  EC50: 5270 nM
[5]
  GI50: 7920 nM
[6]
  EC50: 4460 nM
[7]
  GI50: 8000 nM
[8]
  EC50: 5320 nM
[9]
  EC50: 5160 nM
[10]
  GI50: 2730 nM
[11]
  GI50: 4030 nM
[12]
  GI50: 4000 nM
[13]
  EC50: 2690 nM
[14]
  GI50: 9040 nM
[15]
  GI50: 1070 nM
